The values that follow come from patent publication US10745433B2, “Compounds for inhibiting cancer and virus” (priority 2016, dated 2020).

Structures are written as SMILES. “Also recorded” adds a separate entry of the source. Where two headings read alike, the source gives them in different places. Bounds are passed on as bounds.

One series has as its system DU145. As to the kind of experiment: Growth inhibition assay (MTT), DU145. The format is cell-based. The following applies: Homo sapiens. How it is done:
(§1) The compounds of the invention were subjected to growth inhibition assay. Cells were seeded in 96-well plastic plates and exposed to the compounds of the invention for 72 hours. Cell viability was assessed using the 3-(4,5-dimethylthiazol-2-yl)-2,5-diphenyltetrazolium bromide assay.

Another series has as its system PC3. Description: Growth inhibition assay (MTT), PC3. It counts as cell-based. Particulars: Homo sapiens. How it is done:
as §1

A further series deals with LNCap. Description: Growth inhibition assay (MTT), LNCap. It counts as cell-based. The following applies: Homo sapiens. As for the experimental part:
as §1

The subject of another series is N87. As to the kind of experiment: Growth inhibition assay (MTT), N87. The format is cell-based. How it is done: as §1
For another series, the system named is MKN45. Description: Growth inhibition assay (MTT), MKN45. It counts as cell-based. Particulars: Homo sapiens. As for the experimental part: as §1
A further series concerns Panc-1. Description: Growth inhibition assay (MTT), Panc-1. The following applies: Homo sapiens, Panc-1, Pancreatic cancer, 72 hours. The format is cell-based. As for the experimental part:
as §1

A further series concerns MIAPACA. Description: Growth inhibition assay (MTT), MIAPACA. The format is cell-based. The following applies: Homo sapiens, MIA PaCa-2, 72 hours. As for the experimental part: as §1
For the next series, the system named is MCF-7. Description: Growth inhibition assay (MTT), MCF-7. The following applies: Homo sapiens. It counts as cell-based. As for the experimental part:
as §1

In another series the test system is HCT116. Description: Growth inhibition assay (MTT), HCT116. The format is cell-based. Particulars: Homo sapiens. As for the experimental part:
as §1

The test system of another series is HT29. As to the kind of experiment: Growth inhibition assay (MTT), HT29. It counts as cell-based. Particulars: Homo sapiens. How it is done: as §1
The test system of series [1] is human MDA-MB-231 breast adenocarcinoma. As to the kind of experiment: MDA-MB-231 xenograft animal model. The format is in vivo. The following applies: oral, female nude mice; for body weight: FIG. 1(B). From the text: Anti-cancer Activity Evaluation of the Compounds of the Invention (MPT0L167 and MPT0L179) Against Human MDA-MB-231 Breast Cancer in MDA-MB-231 Xenograft Animal Model and Human Colorectal Cancer HCT116 Xenograft Model […] This study utilized five groups of mice (n=7-8) bearing established human MDA-MB-231 breast adenocarcinoma with mean volumes of ˜250 mm^3.

The test system of series [2] is human HCT116 colorectal cancer. As to the kind of experiment: Human colorectal cancer HCT116 xenograft model. It counts as in vivo. The following applies: oral, female nude mice; for body weight: FIG. 2(B). From the text: Anti-cancer Activity Evaluation of the Compounds of the Invention (MPT0L167 and MPT0L179) Against Human MDA-MB-231 Breast Cancer in MDA-MB-231 Xenograft Animal Model and Human Colorectal Cancer HCT116 Xenograft Model […] This study utilized five groups of mice (n=7-8) bearing established human HCT116 colorectal cancer with mean volumes of ˜200 mm^3.

Series [3] is described as follows: Pharmacokinetic study (PK), i.v. in rats. Particulars: 2 mg/kg i.v. It counts as in vivo. As for the experimental part: 2 mg/kg of niclosamide (MPT0L166) and MPT0L167, MPT0L180 and MPT0L196 were each independently given to five rats by i.v. The blood samples were taken from the rats after 0.03 hour, 0.08 hour, 0.25 hour, 0.5 hour, 1 hour, 2 hours, 4 hours, 6 hour, 8 hours and 24 hours. LC-MS/MS was used to detect the concentration of MPT0L167 in blood.

Series [4] can be described thus: Metabolic stability in rat liver microsomes. The format is in vitro ADME. Particulars: FIG. 3.
Series [5] can be described thus: Metabolic stability in dog liver microsomes. It counts as in vitro ADME. The following applies: FIG. 3.
A short description of series [6]: Metabolic stability in human liver microsomes. The format is in vitro ADME. Particulars: FIG. 3.
Series [7] concerns Zika virus (PRVABC59 strain). As to the kind of experiment: Zika animals study. The format is in vivo. How it is done:
The Zika sensitive female mice: ROSA, STAT1^−/− strain was used. MPT0L167 was used to pre-treat the mice for one day. 4*10^7 cells (U-87 MG human glioblastoma cell with infection with Zika virus (PRVABC59 strain)) were injection in mice. After infection, MPT0L167 was administered with 100 mg/kg to the mice by po,qd. The virus detection in serum at day 3. The concentration of virus in serum was detected by Viralplaque assays.

Setting [8] is: DU-145, DU145, Prostate cancer, 72 hours, MTT, read-out: IC50.
[9] abbreviates: PC-3, PC3, Prostate cancer, 72 hours, MTT, read-out: IC50.
Setting [10] is: LNCap, Prostate cancer, 72 hours, MTT, read-out: IC50.
[11] abbreviates: N87, Gastric cancer, 72 hours, MTT, read-out: IC50.
Where [12] appears, read: MKN-45, MKN45, Gastric cancer, 72 hours, MTT, read-out: IC50.
Where [13] appears, read: MCF7, MCF-7, Breast cancer, 72 hours, MTT, read-out: IC50.
[14] abbreviates: HCT-116, HCT116, Colon cancer, 72 hours, MTT, read-out: IC50.
Where [15] appears, read: HT-29, HT29, Colon cancer, 72 hours, MTT, read-out: IC50.

Compound `O=C(Nc1ccc([N+](=O)[O-])c(C(F)(F)F)c1)c1cc(Cl)ccc1O` came in with a melting point of 172.4 to 174 °C.

In the case of `O=C(Nc1ccc([N+](=O)[O-])cc1Cl)c1cc(Cl)ccc1O` [#166, niclosamide, reference compound], the IC50 was over 10 µM in the series on DU145 (setting [8]); 1.04 µM with PC3 (setting [9]); 0.97 µM with LNCap (setting [10]); 0.14 µM in the series with N87 (setting [11]); over 25 µM in the series on MKN45 (setting [12]); 0.43 µM in the series on Panc-1. In addition, the IC50 came out at 1.17 µM in the series on MIAPACA, 3.69 µM in the series on MCF-7 (setting [13]), 5.64 µM in the series with HCT116 (setting [14]) and 31.1 µM in the series with HT29 (setting [15]).

Turning to `O=C(Nc1ccc([N+](=O)[O-])cc1Cl)c1cc(Cl)ccc1OC1OC(CO)C(O)C(O)C1O` (centres unmarked) [MPT0L167, 5-Chloro-N-(2-chloro-4-nitro-phenyl)-2-(3,4,5-trihydroxy-6-hydroxymethyl-tetrahydro-pyran-2-yloxy)-benzamide], the melting point was 212.6 to 213.2 °C. Besides, the 50% inhibitory concentration (IC50) in the series on DU145 (setting [8]) was over 25 µM. Moreover, the IC50 in the series on PC3 (setting [9]) is over 25 µM. Further, the IC50 in the series with LNCap (setting [10]) was over 25 µM. For the same compound, the IC50 in the series on N87 (setting [11]) is over 25 µM. Further, the IC50 with MKN45 (setting [12]) is over 25 µM. Also, the IC50 in the series with MCF-7 (setting [13]) is over 25 µM. Moreover, in the series on HCT116 (setting [14]), the IC50 was over 50 µM. For the same compound, in the series on HT29 (setting [15]), the IC50 is over 50 µM. Also, the tumor volume result in series [1] (FIG. 1(A)) is “significantly reduces tumor volume”. Besides, the body weight result in series [1] was “does not significantly reduce body weight”. The body weight entry in [1] (listed as MPLOL167) is given as “did not exhibit significant change”. Further, in series [2] (FIG. 2(A)), the tumor volume entry is reported as “significantly reduces tumor volume”. Also, the body weight entry in series [2] is reported as “does not significantly reduce body weight”. Moreover, in [2] (listed as MPLOL167), the body weight entry was “did not exhibit significant change”. The “half-life in vivo compared with niclosamide (MPT0L166)” value in [3] is reported as “longer half-life than MPT0L166”. Further, the “AUC % Extrap obs” value in series [3] (mean) is 1.15%. Also, in series [3] (rat, blood, iv, mean), the AUC(0-inf) was determined as 587 ng·h/mL, the exposure AUC(0-t) stood at 580 ng·h/mL, the Cmax was 3880 ng/mL and the MRT inf was 1.4 h. In addition, in series [3] (rat, blood, iv, mean), the time to peak (Tmax) was determined as 1.8 min and the half-life is 7.38 h. For the same compound, the clearance in series [3] (rat, blood, iv, mean, read-out: CL obs (converted)) is 59.1 mL/min/kg. Further, the Vd in [3] (rat, blood, iv, mean, read-out: VZ obs) came to 37.3 L/kg. The “metabolic stability compared with MPT0L166” value in series [4] is recorded as “more stable than MPT0L166”. Further, the “metabolic stability compared with MPT0L166” value in series [5] is recorded as “more stable than MPT0L166”. Further, in [6], the “metabolic stability compared with MPT0L166” value was “more stable than MPT0L166”. In [7] (female ROSA, STAT1−/− mice, 100 mg/kg po,qd, serum at day 3, FIG. 4(A)), the “concentration of virus in serum (Viralplaque assays)” value is on record as “inhibition of Zika virus infection; also recorded: significantly inhibits Zika virua growth”. Also, the body weight entry in [7] (mouse, in vivo, po, 100 mg/kg) is recorded as “does not significant reduce body weight; also recorded: not significantly changed”.

In the case of `CC(=O)OCOc1ccc(Cl)cc1C(=O)Nc1ccc([N+](=O)[O-])cc1Cl` [MPT0L180, Acetic acid 4-chloro-2-(2-chloro-4-nitro-phenylcarbamoyl)-phenoxymethyl ester], the melting point was in the range of 195.5 to 197.2 °C. Besides, the IC50 in the series on DU145 (setting [8]) was over 25 µM. The IC50 with PC3 (setting [9]) is over 25 µM. For the same compound, the concentration for half-maximal inhibition (IC50) with LNCap (setting [10]) amounted to 2.44 µM. Moreover, in the series with N87 (setting [11]), the IC50 is over 25 µM. Further, the IC50 in the series on MKN45 (setting [12]) is over 25 µM. The IC50 in the series on MCF-7 (setting [13]) was over 25 µM. In addition, the IC50 with HCT116 (setting [14]) is over 50 µM. Moreover, the IC50 in the series with HT29 (setting [15]) is over 50 µM.

`O=C(Nc1ccc([N+](=O)[O-])cc1Cl)c1cc(Cl)ccc1OC(=O)N1CCC(N2CCCCC2)CC1` [MPT0L196, [1,4′]Bipiperidinyl-1′-carboxylic acid 4-chloro-2-(2-chloro-4-nitro-phenylcarbamoyl)-phenyl ester] came in with a melting point of 216.3 to 217.9 °C. Moreover, in the series on DU145 (DU-145, 72 h), the IC50 was over 25 µM. In the series with PC3 (PC-3, 72 h), the half-maximal inhibitory concentration (IC50) was over 25 µM. The compound also had an IC50 in the series with LNCap (LNCaP, 72 h) of over 25 µM. The same compound gave an IC50 in the series on N87 (72 h) of over 25 µM. The same compound registered an IC50 in the series with MKN45 (MKN-45, 72 h) of over 25 µM. This compound displayed an IC50 in the series on MCF-7 (MCF7, 72 h) of over 25 µM. The same compound registered an IC50 in the series with HCT116 (HCT-116, 72 h) of over 50 µM. The compound also yielded an IC50 in the series with HT29 (HT-29, 72 h) of over 50 µM.
